Results published in US20010044445A1, “AZOLE INHIBITORS OF CYTOKINE PRODUCTION” (priority 1999, published 2001).

Key:
[1] = tested on: Human peripheral blood mononuclear cells; test: Human Concanavalin-A Proliferation Assay (Con HU Assay); type: cell-based; details: Homo sapiens, PBMC, concanavalin-A stimulated human PBMC; for IC50: tritiated thymidine; for inhibition at 10 µM / inhibition at 1 µM / inhibition at 100 µM: 72 h, 3 days, read-out: % Inhibition of proliferation (at concentrations of 1,10, or 100 μm); for inhibition at 10 µM: concentration 10 μm (in parentheses in the cell); for inhibition at 1 µM: concentration 1 μm (in parentheses in the cell); for inhibition at 100 µM: concentration 100 μm (in parentheses in the cell)
Summary of the method: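 Proliferation read as tritiated thymidine uptake (0.5 μCi/well, 6 h pulse on day 3) in human PBMC cultured 3 days with 2.5 μg/ml (final) concanavalin-A. Cells, 50,000 per well in supplemented RPMI 1640 with 10% FBS, received compound 15 min before mitogen.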

| SMILES | melting point [°C] | IC50 [1] [nM] | inhibition at 10 µM [1] [%] | inhibition at 1 µM [1] [%] | inhibition at 100 µM [1] [%] |
| --- | --- | --- | --- | --- | --- |
| O=C(Nc1ccc(-n2nc(C(F)(F)F)cc2OC(F)F)cc1)c1ccccc1Cl [Example 353, 2-chloro-N-(4-(5-(difluoromethoxy)-3-(trifluoromethyl)-1H-pyrazol-1-yl)phenyl)benzamide] | 122 to 123 | 174 |  |  |  |
| O=C(Nc1ccc(-n2nc(C(F)(F)F)cc2C(F)(F)F)cc1)c1cccc(I)c1 [Example 25, N-[4-[3,5-bis(trifluoromethyl)-1H-pyrazol-1-yl]phenyl]-3-iodobenzamide] | 192 to 193 | 396 | 100 |  |  |
| Cc1cc(-n2nc(C(F)(F)F)cc2C(F)(F)F)ccc1NC(=O)c1snnc1C [Example 279, N-[4-[3,5-bis(trifluoromethyl)-1H-pyrazol-1-yl]-2-methylphenyl]-4-methyl-1,2,3-thiadiazole-5-carboxamide] | 196 to 197 |  |  | 6 |  |
| O=C(Nc1ccc(-n2nc(C(F)(F)F)cc2C(F)(F)F)cc1)c1ccc(Cl)cc1[N+](=O)[O-] [Example 117, N-[4-[3,5-bis(trifluoromethyl)-1H-pyrazol-1-yl]phenyl]-4-chloro-2-nitrobenzamide] | 163 to 166 | 158 |  |  | 100 |
| COc1cc(C(F)(F)F)nn1-c1ccc(NC(=O)c2snnc2C)cc1 [Example 314, N-(4-(5-methoxy-3-(trifluoromethyl)-1H-pyrazol-1-yl)phenyl)-4-methyl-1,2,3-thiadiazole-5-carboxamide] | 159 to 160 | 246 |  |  |  |
| CCOC(=O)c1cccc(NC(=O)Nc2ccc(-n3nc(C(F)(F)F)cc3C(F)(F)F)cc2)c1 [Example 13, ethyl 3-[[[[4-[3,5-bis(trifluoromethyl)-1H-pyrazol-1-yl]phenyl]amino]carbonyl]amino]-benzoate] | 211 to 212 | 2840 |  |  | 99 |
| O=C(Cc1ccc(Cl)cc1)Nc1cccc(-n2nc(C(F)(F)F)cc2C(F)(F)F)c1 [Example 197, N-[3-[3,5-bis(trifluoromethyl)-1H-pyrazol-1-yl]phenyl]-4-chlorobenzeneacetamide] | 209 to 211 |  |  | 1 |  |
| Cc1nnsc1C(=O)Nc1ccc(-n2nc(C(F)(F)F)cc2C(F)(F)F)c(C(F)(F)F)c1 [Example 276, N-[4-[3,5-bis(trifluoromethyl)-1H-pyrazol-1-yl]-3-(trifluoromethyl)phenyl]-4-methyl-1,2,3-thiadiazole-5-carboxamide] | 134 to 136 |  |  | 16 |  |
| CS(=O)(=O)c1csc(C(=O)Nc2ccc(-n3nc(C(F)(F)F)cc3C(F)(F)F)cc2)c1Cl [Example 165, N-[4-[3,5-bis(trifluoromethyl)-1H-pyrazol-1-yl]phenyl]-3-chloro-4-(methylsulfonyl)-2-thiophenecarboxamide] | 210 to 212 | 6700 | 57 |  |  |
| O=C(Nc1ccc(-n2nc(C(F)(F)F)cc2C(F)(F)F)cc1)c1c(F)ccc([N+](=O)[O-])c1F [Example 230, N-[4-[3,5-bis(trifluoromethyl)-1H-pyrazol-1-yl]phenyl]-2,6-difluoro-3-nitrobenzamide] | 187 to 189 |  |  | 64 |  |
| O=C(/C=C/c1ccccc1Cl)Nc1ccc(-n2nc(C(F)(F)F)cc2C(F)(F)F)cc1 [Example 21, (E)-N-[4-[3,5-bis(trifluoromethyl)-1H-pyrazol-1-yl]phenyl]-3-(2-chlorophenyl)-2-propenamide] | 173 to 175 |  |  | 2 |  |
| N#Cc1ccc(NC(=O)c2ccc(-n3nc(C(F)(F)F)cc3C(F)(F)F)cc2)cc1 [Example 193, 4-[3,5-Bis(trifluoromethyl)-1H-pyrazol-1-yl]-N-(4-cyanophenyl)benzamide] | 192 to 193 |  |  | 8 |  |
| O=C(Nc1ccc(-n2nc(C(F)(F)F)cc2Cl)cc1)c1ccncc1F [Example 328, N-(4-(5-chloro-3-(trifluoromethyl)-1H-pyrazol-1-yl)phenyl)-3-fluoroisonicotinamide] | 128 to 129 | 75 |  |  |  |
| CC(=O)c1cc(C(F)(F)F)nn1-c1ccc(NC(=O)c2cccnc2F)cc1 [Example 315, N-(4-(5-acetyl-3-(trifluoromethyl)-1H-pyrazol-1-yl)phenyl)-2-fluoronicotinamide] | 188 to 189 | 320 |  |  |  |
| O=C(Nc1ccccc1[N+](=O)[O-])c1ccc(-n2nc(C(F)(F)F)cc2C(F)(F)F)cc1 [Example 190, 4-[3,5-Bis(trifluoromethyl)-1H-pyrazol-1-yl]-N-(2-nitrophenyl)benzamide] | 173 to 175 |  |  | 3 |  |
| N#Cc1cccc(/C=C/c2ccc(-n3nc(C(F)(F)F)cc3C(F)(F)F)cc2)c1 [Example 132, (E)-3-[2-[4-[3,5-bis(trifluoromethyl)-1H-pyrazol-1-yl]phenyl]ethenyl]benzonitrile] | 116 to 117 | 6220 | 56 |  |  |

| SMILES | melting point [°C] | IC50 [1] [nM] | inhibition at 10 µM [1] [%] | inhibition at 1 µM [1] [%] | inhibition at 100 µM [1] [%] |
| --- | --- | --- | --- | --- | --- |
| COc1cccc(C(=O)Nc2ccc(-n3nc(C(F)(F)F)cc3C(F)(F)F)cc2)c1 [Example 145, N-[4-[3,5-bis(trifluoromethyl)-1H-pyrazol-1-yl]phenyl]-3-methoxybenzamide] | 169 to 172 | 1590 |  |  | 94 |
| Nc1cccc(C(=O)Nc2ccc(-n3nc(C(F)(F)F)cc3C(F)(F)F)cc2)c1 [Example 58, 3-Amino-N-[4-[3,5-bis(trifluoromethyl)-1H-pyrazol-1-yl]phenyl]benzamide] | 203 to 204 | 484 | 97 |  |  |
| O=C(Nc1ccc(-n2nc(C(F)(F)F)cc2C(F)(F)F)cc1)c1ccc(Cl)cc1F [Example 296, N-(4-(3,5-bis(trifluoromethyl)-1H-pyrazol-1-yl)phenyl)-4-chloro-2-fluorobenzamide] | 156 to 158 | 44 |  |  |  |
| O=C(Nc1ccc(-n2nc(C(F)(F)F)cc2C(F)(F)F)cc1)c1ccsc1 [Example 239, N-[4-[3,5-bis(trifluoromethyl)-1H-pyrazol-1-yl]phenyl]-3-thiophenecarboxamide] | 239 to 240 |  | 55 |  |  |
| CC1CC1C(=O)Nc1ccc(-n2nc(C(F)(F)F)cc2C(F)(F)F)cc1 (centres unmarked) [Example 7, N-[4-[3,5-bis(trifluoromethyl)-1H-pyrazol-1-yl]phenyl]-2-methylcyclopropanecarboxamide] | 172 to 173 | 403 | 97 |  |  |
| O=C(Nc1ccc(-n2nc(C(F)(F)F)cc2C(F)(F)F)cc1)c1ccccc1I [Example 110, N-[4-[3,5-bis(trifluoromethyl)-1H-pyrazol-1-yl]phenyl]-2-iodobenzamide] | 180 to 182 | 314 | 99 |  |  |
| N#Cc1cc(C(F)(F)F)nn1-c1ccc(NC(=O)c2ccccc2Cl)cc1 [Example 350, 2-chloro-N-(4-(5-cyano-3-(trifluoromethyl)-1H-pyrazol-1-yl)phenyl)benzamide] | 162 to 163 | 240 |  |  |  |
| O=C(Nc1ccc(-n2nc(C(F)(F)F)cc2C(F)(F)F)cc1)c1ccc(-n2cccc2)cc1 [Example 46, N-[4-[3,5-bis(trifluoromethyl)-1H-pyrazol-1-yl]phenyl]-4-(1H-pyrrol-1-yl)benzamide] | 249 to 252 |  |  | 10 |  |
| Cc1nnsc1C(=O)Nc1ccc(-n2nc(C(F)(F)F)cc2C#N)cc1 [Example 302, N-(4-(5-cyano-3-(trifluoromethyl)-1H-pyrazol-1-yl)phenyl)-4-methyl-1,2,3-thiadiazole-5-carboxamide] | 193 to 195 | 358 |  |  |  |
| O=C(Nc1ccc(-n2nc(C(F)(F)F)cc2C(F)(F)F)cc1)c1ccc(C(F)(F)F)cc1C(F)(F)F [Example 183, N-[4-[3,5-bis(trifluoromethyl)-1H-pyrazol-1-yl]phenyl]-2,4-bis(trifluoromethyl)benzamide] | 200 to 201 | 542 | 94 |  |  |
| O=C(Nc1ccc(-n2nc(C(F)(F)F)cc2C(F)(F)F)cc1)c1ccc(Br)cc1 [Example 85, N-[4-[3,5-bis(trifluoromethyl)-1H-pyrazol-1-yl]phenyl]-4-bromobenzamide] | 205 to 207 | 275 |  |  | 93 |
| COc1cc(C(F)(F)F)nn1-c1ccc(NC(=O)c2ccncc2F)cc1 [Example 321, 3-fluoro-N-(4-(5-methoxy-3-(trifluoromethyl)-1H-pyrazol-1-yl)phenyl)isonicotinamide] | 160 to 161 | 185 |  |  |  |
| Cc1ccoc1C(=O)Nc1ccc(-n2nc(C(F)(F)F)cc2C(F)(F)F)cc1 [Example 252, N-[4-[3,5-bis(trifluoromethyl)-1H-pyrazol-1-yl]phenyl]-3-methyl-2-furancarboxamide] | 119 to 120 |  |  | 36 |  |
| C=C(C)C(=O)Nc1ccc(-n2nc(C(F)(F)F)cc2C(F)(F)F)cc1 [Example 295, N-(4-(3,5-bis(trifluoromethyl)-1H-pyrazol-1-yl)phenyl)-2-methylacrylamide] | 160 to 162 | 232 |  |  |  |
| O=C(Nc1ccc(-n2nc(C(F)(F)F)cc2C(F)(F)F)cc1)c1c(F)cccc1Cl [Example 212, N-[4-[3,5-bis(trifluoromethyl)-1H-pyrazol-1-yl]phenyl]-2-chloro-6-fluorobenzamide] | 165 to 167 | 70 | 99 |  |  |
